US11564920B2, “5-heteroaryl-1H-pyrazol-3-amine derivative” (Sumitomo Pharma Co., Ltd., priority 2020, dated 2023)
Entries after “also recorded” stand apart in the source; their conditions may differ.

How the values were obtained:
CHK1 = CHK1 (Homo sapiens (Human), UniProt O14757); assay: CHK1 inhibitory activity test (IMAP TR-FRET); format: biochemical; conditions: for effect of suppressing CHK1 activity (in words): compared with prexasertib; for inhibition at 0.0001 µM: read-out: CHK1 inhibition % at 0.1 nM
Sequence of CHK1 (O14757 whole entry): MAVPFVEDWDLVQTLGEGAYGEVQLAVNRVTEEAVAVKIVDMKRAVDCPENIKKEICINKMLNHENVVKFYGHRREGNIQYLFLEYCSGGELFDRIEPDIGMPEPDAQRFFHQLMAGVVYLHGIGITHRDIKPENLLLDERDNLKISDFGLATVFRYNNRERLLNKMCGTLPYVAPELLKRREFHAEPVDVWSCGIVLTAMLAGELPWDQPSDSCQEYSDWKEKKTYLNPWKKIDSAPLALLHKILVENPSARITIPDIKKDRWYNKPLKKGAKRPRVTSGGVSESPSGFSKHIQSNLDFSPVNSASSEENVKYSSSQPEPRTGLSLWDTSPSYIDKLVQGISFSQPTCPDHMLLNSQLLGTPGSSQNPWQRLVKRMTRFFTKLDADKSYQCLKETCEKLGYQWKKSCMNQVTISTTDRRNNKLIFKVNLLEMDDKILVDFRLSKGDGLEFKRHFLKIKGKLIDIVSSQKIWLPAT
Protocol: IMAP TR-FRET Screening Express Kit (R8160) was obtained from Molecular Devices. […] FAM-PKAtide (R7255, Molecular Devices) and FAM-Phospho-PKAtide (R7304, Molecular Devices) were admixed after dilution, and calibration standard systems for phosphorylation levels from 0 to 100% were created. 5 μL of a compound dissolved in a 0.4% DMSO solution was added to a 384 well plate. A compound study group to which 5 μL of each of CHK1, CHK1tide, and ATP was added, and a standard group to which 20 μL of standard was added were created, and subjected to a kinase reaction for 3 hours at 30° C. Subsequently, 60 μL of Binding Reagent (80% Buffer A, 20% Buffer B, 1:600 Binding Reagent, 1:400 Tb-Donor) was added for a binding reaction for 2 hours at room temperature.

hERG current = hERG current (Homo sapiens (Human), UniProt Q12809); assay: hERG current blocking test; conditions: for hERG/CHK1: IC50 of hERG divided by IC50 of CHK1 inhibition of Test Example 1; for IC50: read-out: hERG inhibition IC50, hERG stably expressing CHO cells, Qube384
Sequence of hERG current (Q12809 whole entry): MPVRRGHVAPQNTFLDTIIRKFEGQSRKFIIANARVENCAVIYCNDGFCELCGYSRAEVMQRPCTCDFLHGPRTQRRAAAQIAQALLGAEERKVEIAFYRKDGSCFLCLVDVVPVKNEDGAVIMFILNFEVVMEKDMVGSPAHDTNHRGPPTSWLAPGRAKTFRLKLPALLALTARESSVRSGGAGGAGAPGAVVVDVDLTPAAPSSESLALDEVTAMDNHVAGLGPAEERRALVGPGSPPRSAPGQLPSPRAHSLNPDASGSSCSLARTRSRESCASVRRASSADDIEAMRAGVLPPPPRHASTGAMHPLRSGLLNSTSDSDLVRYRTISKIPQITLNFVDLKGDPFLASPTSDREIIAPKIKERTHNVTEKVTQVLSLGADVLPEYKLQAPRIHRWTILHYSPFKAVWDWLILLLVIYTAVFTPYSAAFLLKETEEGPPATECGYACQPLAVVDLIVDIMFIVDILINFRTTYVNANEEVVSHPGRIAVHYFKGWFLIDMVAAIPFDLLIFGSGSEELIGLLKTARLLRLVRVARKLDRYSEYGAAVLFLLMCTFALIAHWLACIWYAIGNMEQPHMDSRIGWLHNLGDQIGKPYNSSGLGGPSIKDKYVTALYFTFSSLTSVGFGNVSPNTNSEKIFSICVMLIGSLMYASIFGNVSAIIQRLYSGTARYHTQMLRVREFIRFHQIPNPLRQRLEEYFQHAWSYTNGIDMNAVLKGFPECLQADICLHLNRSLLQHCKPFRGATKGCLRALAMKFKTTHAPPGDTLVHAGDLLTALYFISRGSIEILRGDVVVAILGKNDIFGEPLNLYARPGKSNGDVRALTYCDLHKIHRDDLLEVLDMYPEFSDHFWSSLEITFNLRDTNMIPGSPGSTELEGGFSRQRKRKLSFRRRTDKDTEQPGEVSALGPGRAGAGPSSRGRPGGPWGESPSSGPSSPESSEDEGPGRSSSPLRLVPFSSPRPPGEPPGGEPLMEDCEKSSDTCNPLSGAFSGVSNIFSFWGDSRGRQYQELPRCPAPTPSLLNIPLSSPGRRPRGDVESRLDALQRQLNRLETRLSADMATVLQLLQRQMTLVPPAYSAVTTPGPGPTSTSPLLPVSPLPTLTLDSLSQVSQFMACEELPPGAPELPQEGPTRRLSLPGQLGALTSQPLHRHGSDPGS
Protocol: (§1) The test compounds were added to cultured hERG (human Ether-a-go-go Related Gene) gene stably expressing CHO cell line cells to achieve 0.27 to 100 μM.

ES-2 cells = assay: Cell growth suppression experiment; format: cell-based; conditions: for IC50: Homo sapiens, 48 h, cultured for 2 days, read-out: IC50 (cell growth suppression, ranking); for cell growth suppression effect (in words): compared with prexasertib
Protocol: ES-2 cells were obtained from the American Type Culture Collection (ATCC). These cells were cultured at 37° C. in the presence of 5% CO2 in a 10% fetal bovine serum, […] penicillin/streptomycin containing McCoy's 5a medium.
500 cells were seeded for each well in a 384-well plate, and the evaluated compound was added so that the final concentration of DMSO would be 0.1% to culture the cells for 2 days. After completion of the culture, the cell viability rate was calculated using CellTiter-Glo® 3D Reagent (Promega, G968B).

CYP3A4 = CYP3A4 (Homo sapiens (Human), UniProt P08684); assay: CYP3A4 MBI and enzyme inactivation clearance evaluation; format: in vitro ADME; conditions: human liver microsome; for microsomal CLint: liver microsomes, probe midazolam or testosterone; for Factor of change in IC50 value: by pre-incubation with NADPH, MBI action when 2-fold or greater
Sequence of CYP3A4 (P08684 whole entry): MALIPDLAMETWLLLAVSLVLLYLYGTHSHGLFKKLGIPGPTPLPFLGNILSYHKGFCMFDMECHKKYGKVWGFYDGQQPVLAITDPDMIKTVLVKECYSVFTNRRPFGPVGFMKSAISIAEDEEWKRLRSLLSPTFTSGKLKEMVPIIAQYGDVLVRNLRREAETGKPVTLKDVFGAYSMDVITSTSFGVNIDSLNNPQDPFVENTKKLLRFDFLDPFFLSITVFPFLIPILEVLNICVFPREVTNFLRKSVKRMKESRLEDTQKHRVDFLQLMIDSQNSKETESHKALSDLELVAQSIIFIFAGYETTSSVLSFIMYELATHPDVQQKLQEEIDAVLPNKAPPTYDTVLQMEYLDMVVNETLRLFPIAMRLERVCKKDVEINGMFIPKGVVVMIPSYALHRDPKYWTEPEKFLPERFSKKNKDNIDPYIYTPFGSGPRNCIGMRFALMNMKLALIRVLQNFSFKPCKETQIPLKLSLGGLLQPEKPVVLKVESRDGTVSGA
Protocol: The effect and mode of inhibition of the test compound on CYP3A4 were evaluated using a human liver microsome as an enzyme source and midazolam or testosterone as a substrate. […] The IC50 value was calculated from a concentration plot.

hERG = hERG (Homo sapiens (Human), UniProt Q12809); assay: in vitro; conditions: CHO cells stably expressing hERG
Sequence of hERG (Q12809 whole entry): as the sequence (Q12809 whole entry) above
Protocol: as §1

neutrophil count = assay: Measurement of neutrophil count using tumor-bearing mice transplanted with ES-2 cells (Test Example 17); format: in vivo; conditions: 30 mg/kg, 14 days, 2 times/week; 96 hours after final administration
Protocol: Blood was collected 96 hours after the final administration to measure the neutrophil count.
Ratio of residual neutrophils (%)=(neutrophil count of administration group 96 hours after administration)/(neutrophil count of control administration group 96 hours after administration)×100

Row | SMILES | effect of suppressing CHK1 activity (in words) (CHK1) | inhibition at 0.0001 µM (CHK1) [%] | hERG/CHK1 (hERG current) | IC50 (ES-2 cells) [nM] | microsomal CLint (CYP3A4) [µL/min/mg] | IC50 (hERG current) [nM] | selectivity ratio (hERG) | IC50 (CHK1) [nM] | Factor of change in IC50 value (CYP3A4) | cell growth suppression effect (in words) (ES-2 cells) | inhibition of CYP3A4 based on MBI (in words) (CYP3A4) | Ratio of residual neutrophils (neutrophil count) [%]
1 | COc1cncc(OC[C@@H]2CNCCO2)c1-c1cc(Nc2cnc(C#N)cn2)n[nH]1 (stereo in doubt) [Example 12, 5-[(5-{3-methoxy-5-[(morpholin-2-yl)methoxy]pyridin-4-yl}-1H-pyrazol-3-yl)amino]pyrazine-2-carbonitrile] | more potent effect of suppressing CHK1 activity than prexasertib | 21 | 9118 | 100 to 300 | 0.287 | – | – | – | – | – | – | –
2 | COc1cncc(OC[C@H]2CNCCO2)c1-c1cc(Nc2cnc(C#N)cn2)n[nH]1 (stereo in doubt) [Example 13, 5-[(5-{3-methoxy-5-[(morpholin-2-yl)methoxy]pyridin-4-yl}-1H-pyrazol-3-yl)amino]pyrazine-2-carbonitrile] | – | 6 | <3649 | 300 to 1000 | 0.484 | < 2700 | – | – | – | – | – | –
3 | COc1nccc(OCC2(CO)CNC2)c1-c1cc(Nc2cnc(C#N)cn2)n[nH]1 [Example 8, 5-{[5-(4-{[3-(hydroxymethyl)azetidin-3-yl]methoxy}-2-methoxypyridin-3-yl)-1H-pyrazol-3-yl]amino}pyrazine-2-carbonitrile] | more potent effect of suppressing CHK1 activity than prexasertib; also recorded: especially potently suppressing CHK1 activity | 51 | >1000000 | 30 to 100 | – | > 100000 | ≥ 100000 | < 0.1 | Not Detected | – | – | –
4 | COc1ccnc(OCCCN)c1-c1cc(Nc2cnc(C(F)(F)F)cn2)n[nH]1 [Example 16, N-{5-[2-(3-aminopropoxy)-4-methoxypyridin-3-yl]-1H-pyrazol-3-yl}-5-(trifluoromethyl)pyrazin-2-amine] | – | < 5 | <888 | 300 to 1000 | – | < 2700 | – | – | – | – | – | –
5 | COc1cncc(OC[C@]2(F)CCNC2)c1-c1cc(Nc2cnc(C#N)cn2)n[nH]1 [Example 20, (S)-5-[(5-{3-[(3-fluoropyrrolidin-3-yl)methoxy]-5-methoxypyridin-4-yl}-1H-pyrazol-3-yl)amino]pyrazine-2-carbonitrile] | more potent effect of suppressing CHK1 activity than prexasertib | 6 | 11176 | < 30 | 1.11 | – | – | – | – | excellent cell growth suppression effect that is equivalent to that of prexasertib | – | –
6 | COc1cncc(OC[C@@]2(F)CCNC2)c1-c1cc(Nc2cnc(C#N)cn2)n[nH]1 [Example 22, (R)-5-[(5-{3-[(3-fluoropyrrolidin-3-yl)methoxy]-5-methoxypyridin-4-yl}-1H-pyrazol-3-yl)amino]pyrazine-2-carbonitrile] | more potent effect of suppressing CHK1 activity than prexasertib | 22 | 12500 | < 30 | 0.349 | – | – | – | – | excellent cell growth suppression effect that is equivalent to that of prexasertib | – | –
7 | COc1cncc(OC[C@H](C)CN)c1-c1cc(Nc2cnc(C#N)cn2)n[nH]1 [Example 28] | – | < 5 | – | < 30 | – | – | – | – | – | – | – | –
8 | COc1cncc(OC[C@@H](F)CN)c1-c1cc(Nc2cnc(C#N)cn2)n[nH]1 [Example 29, 5-[(5-{3-[(2S)-3-amino-2-fluoropropoxy]-5-methoxypyridin-4-yl}-1H-pyrazol-3-yl)amino]pyrazine-2-carbonitrile] | – | – | 18667 | < 30 | 0.054 | – | – | – | Not Detected | excellent cell growth suppression effect that is equivalent to that of prexasertib | – | –
9 | COc1cncc(OC[C@H](F)CN)c1-c1cc(Nc2cnc(C#N)cn2)n[nH]1 [Example 30, 5-[(5-{3-[(2R)-3-amino-2-fluoropropoxy]-5-methoxypyridin-4-yl}-1H-pyrazol-3-yl)amino]pyrazine-2-carbonitrile] | more potent effect of suppressing CHK1 activity than prexasertib | 28 | 40000 | < 30 | – | – | – | – | Not Detected | excellent cell growth suppression effect that is equivalent to that of prexasertib | – | –
10 | CNCCCOc1cncc(OC)c1-c1cc(Nc2cnc(C#N)cn2)n[nH]1 [Example 31, 5-[(5-{3-methoxy-5-[3-(methylamino)propoxy]pyridin-4-yl}-1H-pyrazol-3-yl)amino]pyrazine-2-carbonitrile] | – | < 5 | – | < 30 | – | – | – | – | – | excellent cell growth suppression effect that is equivalent to that of prexasertib | – | –
11 | COc1cncc(O[C@H](C)C2CNC2)c1-c1cc(Nc2cnc(C#N)cn2)n[nH]1 [Example 33, 5-[(5-{3-[(1R)-1-(azetidin-3-yl)ethoxy]-5-methoxypyridin-4-yl}-1H-pyrazol-3-yl)amino]pyrazine-2-carbonitrile] | – | < 5 | – | < 30 | – | – | – | – | – | excellent cell growth suppression effect that is equivalent to that of prexasertib | – | –
12 | COc1cncc(O[C@H](C)C2(O)CNC2)c1-c1cc(Nc2cnc(C#N)cn2)n[nH]1 [Example 34, 5-[(5-{3-[(1R)-1-(3-hydroxyazetidin-3-yl)ethoxy]-5-methoxypyridin-4-yl}-1H-pyrazol-3-yl)amino]pyrazine-2-carbonitrile] | – | < 5 | – | > 1000 | – | – | – | – | – | – | – | –
13 | CN[C@@H]1CC[C@@H](Oc2cncc(OC)c2-c2cc(Nc3cnc(C#N)cn3)n[nH]2)C1 [Example 35, 5-{[5-(3-methoxy-5-{[(1R,3R)-3-(methylamino)cyclopentyl]oxy}pyridin-4-yl)-1H-pyrazol-3-yl]amino}pyrazine-2-carbonitrile] | – | < 5 | – | < 30 | – | – | – | – | – | excellent cell growth suppression effect that is equivalent to that of prexasertib | – | –
14 | COc1cncc(O[C@H]2C[C@H](N)[C@H]3C[C@H]32)c1-c1cc(Nc2cnc(C#N)cn2)n[nH]1 [Example 36, 5-{[5-(3-{[(1R,2S,4S,5S)-4-aminobicyclo[3.1.0]hexan-2-yl]oxy}-5-methoxypyridin-4-yl)-1H-pyrazol-3-yl]amino}pyrazine-2-carbonitrile] | – | < 5 | – | < 30 | – | – | – | – | – | excellent cell growth suppression effect that is equivalent to that of prexasertib | – | –
15 | COc1ccnc(OCC2(CN)CC2)c1-c1cc(Nc2cnc(C#N)cn2)n[nH]1 [Example 37, 5-{[5-(2-{[1-(aminomethyl)cyclopropyl]methoxy}-4-methoxypyridin-3-yl)-1H-pyrazol-3-yl]amino}pyrazine-2-carbonitrile] | more potent effect of suppressing CHK1 activity than prexasertib | 18 | <8438 | < 30 | – | < 2700 | – | – | Not Detected | excellent cell growth suppression effect that is equivalent to that of prexasertib | do not exhibit inhibition of CYP3A4 based on MBI | –
16 | COc1nccc(OCC2(CN)CC2)c1-c1cc(Nc2cnc(C#N)cn2)n[nH]1 [Example 38, 5-{[5-(4-{[1-(aminomethyl)cyclopropyl]methoxy}-2-methoxypyridin-3-yl)-1H-pyrazol-3-yl]amino}pyrazine-2-carbonitrile] | – | < 5 | – | < 30 | – | – | – | – | – | excellent cell growth suppression effect that is equivalent to that of prexasertib | – | –
17 | Nc1ccn([C@@H]2O[C@H](CO)[C@@H](O)C2(F)F)c(=O)n1 [Gemcitabine] | – | – | – | – | – | – | – | – | – | – | – | 39
